Experiments:
[1] = tested on: RBC from individuals with SCD (genotype HbSS); test: Microfluidic measurement of oxygen-dependent sickle blood flow; type: cell-based, human; settings: for area under the velocity response curve (AUC) relative to control / deceleration rate of blood during deoxygenation: 500 μM, RBC at 25% hematocrit, 7 individuals with SCD, 1 hour at 37° C.; for deceleration rate of blood during deoxygenation: FIG. 8C
Description: We treated RBC suspensions at 25% hematocrit from 7 individuals with SCD (genotype HbSS) with 500 μM of our hit compounds or voxelotor (positive control) and quantified the flow in our microfluidic platform under well-defined oxygen tensions. (FIG. 8A) Representative image of blood flowing in microfluidic device with overlay of arrows representing the velocities of features between frames using the Lucas Kanade Tomasi algorithm. (FIG. 8B) Area under velocity response curve (AUC) comparison among treated samples compared to the vehicle control. (FIG. 8C) Deceleration rate comparison among treated samples compared to the vehicle control. All statistics were performed using a one-tailed Wilcoxon signed rank test, a=0.05, * p-value<0.05, **p-value<0.01
(FIG. 9A) Raw oxygen and velocity recordings during microfluidic experiment. Arrow indicates the change in the steady state mean velocity after introducing hypoxic conditions on the microfluidic chip. (FIG. 9B) The on-chip oxygen concentration is cycled seven times during the experiment between 21% 02 and hypoxia. Changes in the velocity during each cycle are normalized to the average velocity of the initial 21% cycle. (FIG. 9C) Shaded region represents the area under the curve (AUC) using the steady state mean velocity changes at each oxygen concentration. This measurement quantifies the overall oxygen response of the blood by accounting for both the magnitude of the steady state mean velocity drop as well as the persistence of oxygen-dependence at higher oxygen concentrations (FIG. 9D) Blood deceleration is measured by a segmented moving mean of the velocity response during the hypoxic transition using Matlab signal processing.
Blood Sample Collection and Preparation for Microfluidic Assays: Sickle cell patient blood samples were collected under protocols approved by the Institutional Review Boards at Children's Minnesota Hospital, the University of Minnesota Medical Center, and the University of Minnesota. Patient blood samples were collected into sodium citrate vacutainer tubes and stored at 4° C. The samples were prepared for the microfluidic experiments by washing twice with Dulbecco's phosphate buffered saline (DPBS) after centrifugation for 5 minutes at 400g. Packed red blood cells were then isolated by centrifuging the washed samples for 10 minutes at 400g and removing all remaining DPBS. The packed red blood cells were added to fresh DPBS to achieve a target hematocrit of 25%. Each compound of interest was added to the sample to reach a target concentration of 500 uM and incubated at 37° C. for 1 hour before being run on the microfluidic device. The compounds were dissolved in DMSO at a concentration of 100 mM and stored at −20° C. or −80° C. prior to use.
Microfluidic Setup and Experimental Protocol: A previously described (Valdez et al., 2019, APL Bioengineering 3, 046101; Geisness et al., 2022, Haematologica, 107(6); Hansen et al., 2020, Br J Haematol, (2019). Br J Haematol. 188(6): 985-993), polydimethylsiloxane (PDMS) microfluidic device replicating the geometry of the post-capillary venules was used to study blood rheological behavior. […] The microfluidic channels were primed by flowing a 2% bovine serum albumin (BSA) in DPBS solution through the device to passivate the PDMS surface. Blood was then added to the inlet port and flowed through the device under a constant driving pressure to achieve an initial velocity of […] (PCD-15PSIG, Alicat Scientific). At the bifurcation, blood is diverted to two […] square channels—a bypass channel and an experimental channel. Separate gas inlets supply oxygen to each of the two blood channels independently via diffusion from the overlaid gas layer. The bypass channel is supplied with air and maintained under normoxic conditions. […]

[2] = molecular target: deoxy-HbS oligomers (sickle hemoglobin, HbS) (Homo sapiens, UniProt P68871+P69905, E7V); test: Dynamic light scattering (DLS) of deoxy-HbS oligomers at sub-nucleating concentration; type: biochemical; settings: HbS 25 μM; for size of deoxyHbS oligomers (DLS effective diameter) relative to control: hit compounds 100 μM, two hours at room temperature, degassed with argon, FIG. 4C
Description: (FIG. 4A) Pilot screening with LOPAC library. Compounds that reduced the FRET efficiency below 3SD (black line) were selected for further characterization. […] Fluorescently labeled HbS samples were plated in a 1536 plate and treated separately with DMSO or the three hit compounds, chlormezanone, gabazine, and phosphoramidon disodium, in a dose-dependent manner from 0.1 to 1000 μM for 2 hours at room temperature and then vacuum degassed for 10 minutes, and then donor lifetimes were measured using a fluorescence plate reader. […] HbS samples (25 μM) were incubated separately with hit compounds (100 μM) or DMSO only for two hours at room temperature and degassed with argon for five minutes, and then DLS measurement were taken at room temperature. […] Effect of hit compounds on polymerization of deoxyHbS in high potassium phosphate buffer. Curves represent growth of polymer as a function of time in the presence or absence of drug.

SMILES | area under the velocity response curve (AUC) relative to control [1] | deceleration rate of blood during deoxygenation [1] | size of deoxyHbS oligomers (DLS effective diameter) relative to control [2] | modification of the hemoglobin ([1]; 500 μM at 25% hematocrit, assuming complete RBC partitioning and 30-36 g/dl intracellular hemoglobin) | mean oligomer size of deoxyHbS (DLS effective diameter) ([2]; degassed with argon 5 minutes, room temperature, FIG. 1A)
CN1C(=O)CCS(=O)(=O)C1c1ccc(Cl)cc1 (stereo not shown) [chlormezanone] | significantly reduced the mean AUC | significantly reduced the deceleration rate | significantly decreased the oligomer size | – | –
COc1ccc(-c2ccc(=N)n(CCCC(=O)O)n2)cc1 [gabazine] | insignificant trend towards reduced AUC | significantly reduced the deceleration rate | significantly decreased the oligomer size | – | –
CC(C)n1nccc1-c1ncccc1COc1cccc(O)c1C=O [voxelotor] | significantly reduced the mean AUC | significantly reduced the deceleration rate | – | 35-45% | dramatically reduced the mean oligomer size
